Source: patent publication US11713335B2, “Aminocoumarin compounds and methods of their use” (President and Fellows of Harvard College, priority 2018, dated 2023)
In brackets after ≈: the same amount, converted by molar mass. Where two headings read alike, the source gives them in different places.

Legend:
[1] = system: S. aureus MW2; test: Minimal inhibitory concentration, S. aureus MW2; assay type: cell-based; settings: 16 hour minimal inhibitory concentration at 37° C., read-out: MIC (μM) S. aureus MW2 (MRSA)
Outline: (§1)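 Broth microdilution, 2-fold series from DMSO stock; inoculum = saturated overnight culture (LB; TSA for S. aureus) diluted 1:100 then 1:100. 37 °C, 16 h, no shaking. OD600 read-out; MIC = lowest conc. inhibiting growth (µM).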

[2] = system: K. pneumoniae 700721; test: Minimal inhibitory concentration, K. pneumoniae 700721; assay type: cell-based; settings: 16 hour minimal inhibitory concentration at 37° C., read-out: MIC (μM) K. pneumoniae 700721
Outline: as §1

[3] = system: E. coli MC4100; test: Minimal inhibitory concentration, E. coli MC4100; assay type: cell-based; settings: 16 hour minimal inhibitory concentration at 37° C., read-out: MIC (μM) E. coli MC4100 ara+
Outline: as §1

[4] = system: E. coli 25922; test: Minimal inhibitory concentration, E. coli 25922; assay type: cell-based; settings: 16 hour minimal inhibitory concentration at 37° C., read-out: MIC (μM) E. coli 25922
Outline: as §1

[5] = system: S. aureus RN4220; test: Minimal inhibitory concentration, S. aureus RN4220; assay type: cell-based; settings: 16 hour minimal inhibitory concentration at 37° C., read-out: MIC (μM) S. aureus RN4220
Outline: as §1

[6] = system: A. baumannii 19606; test: Minimal inhibitory concentration, A. baumannii 19606; assay type: cell-based; settings: 16 hour minimal inhibitory concentration at 37° C., read-out: MIC (μM) A. baumannii 19606
Outline: as §1

[7] = system: WT E. coli; test: Minimal inhibitory concentration in wild-type E. coli; assay type: cell-based, Escherichia coli; settings: wild-type E. coli, 37° C., 16 hours, read-out: MIC (μM) in WT E. coli
Outline: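 Broth microdilution: saturated LB overnight culture diluted 1:100 twice, compound serially two-fold diluted across the plate from DMSO stock. Static incubation 16 hours at 37° C, OD600 read; MIC taken as lowest concentration inhibiting growth.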

[8] = system: E. cloacae 13047; test: Minimal inhibitory concentration, E. cloacae 13047; assay type: cell-based; settings: 16 hour minimal inhibitory concentration at 37° C., read-out: MIC (μM) E. cloacae 13047
Outline: as §1

[9] = Staphylococcus aureus, MRSA, 16 h
[10] = Staphylococcus aureus, RN4220, 16 h
[11] = Acinetobacter baumannii, 19606, 16 h

SMILES | MIC [1] [µM] | MIC [2] [µM] | MIC [3] [µM] | MIC [4] [µM] | MIC [5] [µM] | MIC [6] [µM] | MIC [7] [µM] | MIC [8] [µM] | MIC [1, 9] [µM] | MIC ([2]; Klebsiella pneumoniae, 700721) [µM] | MIC ([3]; Escherichia coli, MC4100, 16 h) [µM] | MIC ([4]; Escherichia coli, 25922, 16 h) [µM] | MIC [5, 10] [µM] | MIC [6, 11] [µM] | MIC ([7]; Escherichia coli) [µM] | MIC ([8]; Enterobacter cloacae, 13047) [µM]
CO[C@@H]1[C@@H](OC(N)=O)[C@@H](O)[C@H](Oc2ccc3c(O)c(NC(=O)c4cc(-c5ccccc5)ccc4N)c(=O)oc3c2C)OC1(C)C [Compound 85] | 2.5 (≈ 1.55 µg/mL) | >100 | 59 (≈ 36.6 µg/mL) | 40 (≈ 24.8 µg/mL) | 5 (≈ 3.1 µg/mL) | >50 | 59 (≈ 36.6 µg/mL) | >100 | – | – | – | – | – | – | – | –
CO[C@@H]1[C@@H](OC(N)=O)[C@@H](O)[C@H](Oc2ccc3c(O)c(NC(=O)c4ccc[nH]4)c(=O)oc3c2C)OC1(C)C [Compound 15] | – | – | – | – | – | – | – | – | > 100 | > 100 | > 200 | > 200 | > 100 | > 50 | > 300 | > 100
CO[C@@H]1[C@@H](OC(N)=O)[C@@H](O)[C@H](Oc2ccc3c(O)c(NC(=O)Nc4cccc(-c5ccccc5)c4)c(=O)oc3c2C)OC1(C)C [Compound 3] | – | – | – | – | – | – | – | – | 81 (≈ 50.2 µg/mL) | > 100 | > 200 | > 200 | 81 (≈ 50.2 µg/mL) | > 50 | > 300 | > 100
CO[C@@H]1[C@@H](OC(N)=O)[C@@H](O)[C@H](Oc2ccc3c(O)c(NC(=O)c4ccc(N)c(-c5ccccc5)c4)c(=O)oc3c2C)OC1(C)C [Compound 86] | 20 (≈ 12.4 µg/mL) | 40 (≈ 24.8 µg/mL) | 18 (≈ 11.2 µg/mL) | 20 (≈ 12.4 µg/mL) | 20 (≈ 12.4 µg/mL) | >50 | 18 (≈ 11.2 µg/mL) | >100 | – | – | – | – | – | – | – | –
CO[C@@H]1[C@@H](OC(N)=O)[C@@H](O)[C@H](Oc2ccc3c(O)c(NC(=O)c4ccc(-c5ccccc5)cc4)c(=O)oc3c2C)OC1(C)C [Compound 2] | – | – | – | – | – | – | – | – | 21 (≈ 12.7 µg/mL) | > 100 | > 200 | > 200 | 21 (≈ 12.7 µg/mL) | > 50 | > 300 | > 100
CO[C@@H]1[C@@H](OC(N)=O)[C@@H](O)[C@H](Oc2ccc3c(O)c(NC(=O)c4cccc(-c5ccc(Br)cc5)c4)c(=O)oc3c2C)OC1(C)C [Compound 68] | – | – | – | – | – | – | – | – | 0.91 (≈ 0.622 µg/mL) | > 100 | 18 (≈ 12.3 µg/mL) | 18 (≈ 12.3 µg/mL) | 0.91 (≈ 0.622 µg/mL) | 18 (≈ 12.3 µg/mL) | 18 (≈ 12.3 µg/mL) | > 100
CO[C@@H]1[C@@H](OC(N)=O)[C@@H](O)[C@H](Oc2ccc3c(O)c(NC(=O)c4ccc(O)c(C/C=C/C(=O)O)c4)c(=O)oc3c2C)OC1(C)C [Compound 82] | >100 | >100 | >200 | >200 | >100 | >50 | >300 | >100 | – | – | – | – | – | – | – | –
CO[C@@H]1[C@@H](OC(N)=O)[C@@H](O)[C@H](Oc2ccc3c(O)c(NC(=O)c4cccc(-c5ccccc5C(C)C)c4)c(=O)oc3c2C)OC1(C)C [Compound 49] | 5 (≈ 3.23 µg/mL) | >100 | >200 | >200 | 10 (≈ 6.47 µg/mL) | >50 | >300 | >100 | – | – | – | – | – | – | – | –
CO[C@@H]1[C@@H](OC(N)=O)[C@@H](O)[C@H](Oc2ccc3c(O)c(NC(=O)c4cccc(-c5ccc(F)cc5)c4)c(=O)oc3c2C)OC1(C)C [Compound 28] | – | – | – | – | – | – | – | – | 5 (≈ 3.11 µg/mL) | 80 (≈ 49.8 µg/mL) | 26 (≈ 16.2 µg/mL) | 40 (≈ 24.9 µg/mL) | 5 (≈ 3.11 µg/mL) | > 50 | 26 (≈ 16.2 µg/mL) | 161 (≈ 100 µg/mL)
CO[C@@H]1[C@@H](OC(N)=O)[C@@H](O)[C@H](Oc2ccc3c(O)c(NC(=O)c4cccc5ccn(C)c45)c(=O)oc3c2C)OC1(C)C [Compound 74] | >100 | >100 | >200 | >200 | >100 | >50 | >300 | >100 | – | – | – | – | – | – | – | –
CO[C@@H]1[C@@H](OC(N)=O)[C@@H](O)[C@H](Oc2ccc3c(O)c(NC(=O)c4ccc(C5CCCCC5)cc4)c(=O)oc3c2C)OC1(C)C [Compound 41] | – | – | – | – | – | – | – | – | 20 (≈ 12.2 µg/mL) | > 100 | > 200 | > 200 | 20 (≈ 12.2 µg/mL) | > 50 | > 300 | > 100
